Assay results published in patent publication US8257931B2 (President and Fellows of Harvard College, priority 2005, dated 2012).
Where two headings read alike, the source gives them in different places.

Legend:
A549 lung cancer cells = assay: A549 proliferation, sulforhodamine B (SRB) assay; format: cell-based, human; details: sulforhodamine B assay, triplicate
Description: FIG. 28 is a graph showing the results of a cell proliferation assay. A549 cells, which are human lung cancer cells, are grown in plates for five days in medium containing 5% FCS and compound. The number of cells is quantified by staining with sulforhodamine B.

eIF4E/eIF4G interaction = target: T1, eIF4E/eIF4G interaction (Mus musculus, UniProt P63073); assay: Fluorescence polarization assay: binding of fluorescein-labeled eIF4G peptide to eIF4E; set-up: species or system murine; details: triplicate, SD<±10%; for IC50: read-out: IC50 (μM) (4E/4G FP)
T1 construct: made in house; host or cells: E. coli
Description: We adapted this assay to a microwell plate format and used it to screen the 16,000 compound Chembridge DiverSet E library. […] For screening and subsequent peptide binding assays measurements of fluorescence polarization were made using an LJL Analyst plate reader. For the screening assay a solution containing approximately 5 μM meIF4E, 60 nM labeled peptide, 0.05% bovine γ-globulin, and 2 mM DTT in a buffer composed of 50 mM sodium phosphate and 50 mM potassium chloride at pH 6.5 was used. […] The curve fitting for estimation of binding constants used equations derived by Roehrl et al.^22 Measurements of fluorescence polarization and anisotropy were made in black 384-well plates (Corning) using an Analyst plate reader (LJL Biosystems) Compounds were transferred to plates during the screening using a custom-built Seiko pin transfer robot at the Institute for Chemistry and Cell Biology (ICCB) at Harvard Medical School.
A fluorescence polarization (FP) assay was developed to measure binding of a peptide containing the conserved eIF4E-binding motif to eIF4E.
The assay was adapted to a microwell plate format and used to screen a number of libraries comprised of small molecule libraries for potential eIF4E/eIF4G interaction inhibitors.

[1] = Homo sapiens, A549, Table 1 of b280
[2] = Homo sapiens, A549, Table 1 of b347

T1 sequence (P63073 whole entry): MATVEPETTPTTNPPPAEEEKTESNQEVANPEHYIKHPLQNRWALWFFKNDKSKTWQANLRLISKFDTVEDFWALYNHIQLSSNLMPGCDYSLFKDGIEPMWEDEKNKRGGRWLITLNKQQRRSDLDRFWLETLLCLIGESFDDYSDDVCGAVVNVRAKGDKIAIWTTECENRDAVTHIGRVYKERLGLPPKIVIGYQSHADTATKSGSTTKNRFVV

Row | SMILES | IC50 (eIF4E/eIF4G interaction; Table 1 of b280) [µM] | IC50 (eIF4E/eIF4G interaction; Table 1 of b347) [µM] | GI50 (A549 lung cancer cells; [1]) [µM] | further results
1 | O=C(O)/C(Cc1ccccc1[N+](=O)[O-])=N/Nc1nc(-c2ccc(Cl)c(Cl)c2)cs1 [E-1, 2-{[4-(3,4-Dichloro-phenyl)-thiazol-2-yl]-hydrazono}-3-(2-nitro-phenyl)-propionic acid] |  |  |  | GI50 (A549 lung cancer cells; Table 1): 3 µM; GI50 (A549 lung cancer cells; Table 1, listed as E-4a): 3 µM
2 | O=C(O)/C(Cc1ccccc1)=N/Nc1nc(-c2ccc(Cl)c(Cl)c2)cs1 [E-3, 2-{[4-(3,4-Dichloro-phenyl)thiazol-2-yl]-hydrazono}-3-phenyl-propionic acid] | 355 | 355 |  | GI50 (A549 lung cancer cells; Table 1): 6.5 µM; GI50 (A549 lung cancer cells; Table 1, listed as E-4s): 6.5 µM
3 | O=C(O)/C(Cc1ccccc1[N+](=O)[O-])=N/Nc1nc(-c2ccccc2)cs1 [Z-2] | > 600 | > 600 |  | GI50 (A549 lung cancer cells; Table 1): > 20 µM; GI50 (A549 lung cancer cells; Table 1, listed as Z-4r): > 20 µM
4 | O=C(O)/C(=C\c1ccccc1)NCc1nc(-c2ccccc2)cs1 | > 600 |  |  | 
5 | C(/Cc1ccccc1)=N/Nc1nc(-c2ccccc2)cs1 [Z-5, N-Phenethylidene-N′-(4-phenyl-thiazol-2-yl)-hydrazine] | > 600 | > 600 | 7 | GI50 (A549 lung cancer cells; [2]): 7 µM
6 | O=C(O)C(Cc1ccccc1)NCc1nc(-c2ccccc2)cs1 (stereo not shown) [compound 20, 3-Phenyl-2-[(4-phenyl-thiazol-2-ylmethyl)-amino]-propionic acid] |  |  |  | IC50 (μM) (4E/4G FP) (eIF4E/eIF4G interaction; Table 1 of b347): insoluble
7 | O=C(O)/C(Cc1ccccc1)=N/NC(=S)NCc1ccccc1 [compound 8] | 550 | 550 | > 10 | GI50 (A549 lung cancer cells; [2]): > 10 µM
8 | COC(=O)/C(Cc1ccccc1)=N/Nc1nc(-c2ccccc2)cs1 [E-13, 3-Phenyl-2-[(4-phenyl-thiazol-2-yl)-hydrazono]-propionic acid methyl ester] |  |  |  | GI50 (A549 lung cancer cells; Table 1): 7 µM; GI50 (A549 lung cancer cells; Table 1, listed as E-4f): 7 µM
9 | O=C(NC(Cc1ccccc1)C(=O)O)c1nc(-c2ccccc2)cs1 (stereo not shown) [drawing 69] | > 600 |  |  | 
10 | COC(=O)/C(Cc1ccccc1)=N/Nc1nc(-c2ccccc2)cs1 [Z-13, 3-Phenyl-2-[(4-phenyl-thiazol-2-yl)-hydrazono]-propionic acid methyl ester] | > 600 | > 600 | 11 | GI50 (A549 lung cancer cells; [2]): 11 µM
11 | O=C(O)/C(Cc1ccccc1[N+](=O)[O-])=N/Nc1nc(-c2ccccc2)cs1 [E-2] |  |  |  | GI50 (A549 lung cancer cells; Table 1): 7 µM; GI50 (A549 lung cancer cells; Table 1, listed as E-4r): 7 µM
12 | O=C(O)/C(Cc1ccccc1)=N/Nc1nc(-c2ccccc2)cs1 [Z-4, 3-Phenyl-2-[(4-phenyl-thiazol-2-yl)-hydrazono]-propionic acid] | 240 | 240 | 17 | GI50 (A549 lung cancer cells; [2]): > 20 µM
13 | O=C(O)C(Cc1ccccc1)=NNc1nc(-c2ccc(C3CCCCC3)cc2)cs1 (mixture of isomers) | 100 |  |  | 
14 | O=C(NC(Cc1ccccc1)C(=O)O)c1nc(-c2ccccc2)cs1 (stereo not shown) [compound 18, 3-Phenyl-2-[(4-phenyl-thiazole-2-carbonyl)-amino]-propionic acid] |  | > 600 |  | 
15 | O=C(O)/C(Cc1ccccc1)=N/Nc1ccc(-c2ccccc2)nn1 [Z-17, 3-Phenyl-2-[(6-phenyl-pyridazin-3-yl)-hydrazono]-propionic acid] | > 600 |  | > 10 | 
16 | O=C(O)C(Cc1ccccc1)NCc1nc(-c2ccccc2)cs1 (stereo not shown) [drawing 71] |  |  |  | IC50 (μM) (4E/4G FP) (eIF4E/eIF4G interaction; Table 1 of b280): insoluble
17 | NC(=O)/C(Cc1ccccc1)=N/Nc1nc(-c2ccccc2)cs1 [E-21, 3-Phenyl-2-[(4-phenyl-thiazol-2-yl)-hydrazono]-propionamide] |  | > 600 |  | 
18 | O=C(O)/C(Cc1ccccc1)=N\Nc1nnc(-c2ccccc2)s1 [Z-16, 3-Phenyl-2-[(5-phenyl-[1,3,4]thiadiazol-2-yl)-hydrazono]-propionic acid] | > 600 | > 600 | > 10 | GI50 (A549 lung cancer cells; [2]): > 10 µM
19 | O=C(O)C(CNc1nc(-c2ccccc2)cs1)Cc1ccccc1 (stereo not shown) [compound 22, 2-Benzyl-3-(4-phenyl-thiazol-2-ylamino)-propionic acid] |  | > 600 |  | 
20 | O=C(O)C(Cc1ccccc1)C(=O)Nc1nc(-c2ccccc2)cs1 (stereo not shown) [drawing 70] | > 600 |  |  | 
21 | O=C(O)/C(Cc1ccccc1[N+](=O)[O-])=N/Nc1nc(-c2ccc(-c3ccccc3)cc2)cs1 |  |  | 4 | 
